Structures are written as SMILES. Read-outs that look alike come from different tables or passages of the source.

A short description of data set [1]: Calcein AM fluorescence (RFU) assay of chelation of the ferrous-salen complex compound by a metal chelating agent. The conditions noted are these: for EC50: Calcein AM, FIG. 1, read-out: EC50 (50% effective concentration of a maximum reaction value) of chelator, RFU recovery. The data set is classed as biochemical. From the text:
If calcein (Calcein: fluorescent indicator) is used solely, it emits light (an RFU value increases); however, if calcein binds with a ferrous-salen complex compound, light emission diminishes (the RFU value decreases). Accordingly, if deferoxamine (deferoximine: the above-mentioned structural formula (II)) exists, iron ions of the ferrous-salen complex compound are adsorbed by the deferoxamine and ferrous-salen ligands are detached from calcein. As a result, the amount of the calcein-divalent-iron-salen complex compound decreases and the light emission […]. You can tell that as an amount of emitted light […], the metal-salen complex compound combines with the metal chelating agent.
The ferrous-salen complex compound (M=Fe, R═R′═H) indicated as the aforementioned structural formula (III) was produced based on descriptions of WO 2010/058280. […] Subsequently, 15 μM deferoxamine was administered to this ferrous-salen complex compound—calcein AM complex—and measurement was performed one hour later by using a measuring device (parkinermar ARVO) (λexc=485 nm, λem=520 nm).
A 15 μM of deferoxamine and vitamin C was administered to the ferrous-salen complex compound—calcein AM complex—which was produced in Example 1 above and measurement was performed one hour later by using the measuring device (parkinermar ARVO) (λexc=485 nm, λem=520 nm). As a result, it was also confirmed that when the ferrous-salen complex compound was added to Calcein AM, the RFU (Relative Fluorescent Unit) value was low. However, it was confirmed that when the chelator (deferoxamine and vitamin C) continued to be added, the RFU value increased.

Data set [2] concerns POS-1 cells (mouse osteosarcoma cells). The data set is described as follows: MTT cell survival assay: neutralizing cytotoxicity of the ferrous-salen complex compound. The data set is classed as cell-based. The conditions noted are these: 24 hours. The method, then:
The cells were collected 24 hours later and an MTT reagent for cell survival assay was administered, 400 μL of 0.04-mol of HCl/isopropyl alcohol was added 45 minutes later, 100 μL of the obtained mixture was dispensed to 96-well plates, and absorbance at 570 nm was measured, thereby calculating cell viability.
The cells were collected 24 hours later and the MTT reagent for cell survival assay was administered, 400 μL of 0.04-mol of HCl/isopropyl alcohol was added 45 minutes later, 100 μL of the obtained mixture was dispensed to 96-well plates, and absorbance at 570 nm was measured, thereby calculating cell viability.

`[Fe+2].[O-]c1ccccc1C=NCCN=Cc1ccccc1[O-]` [ferrous-salen complex compound]: the “RFU (Relative Fluorescent Unit) value when added to Calcein AM” value in data set [1] (ferrous-salen complex compound added to Calcein AM, no chelator) is on record as “low”. For the same compound, the cell viability entry in data set [2] (7.5 μM, control = 100%, FIG. 2) was “decreased”.

Consider `O=C(O)c1ccc(-n2nc(-c3ccccc3O)nc2-c2ccccc2O)cc1` [deferasirox, 4-[3,5-Bis(2-hydroxyphenyl)-1,2,4-triazol-1-yl]benzoic acid], for which the “cell viability as chelator concentration increased (neutralization of toxicity)” value in data set [2] (7.5 μM ferrous-salen complex compound (NBEI) plus deferasirox 0.1-15 μM, FIG. 2) is recorded as “increased”. The “deferasirox concentration at which the effect on cell viability did not change further” value in data set [2] (7.5 μM ferrous-salen complex compound (NBEI)) was at least 1.8 µM.

Turning to `CC(=O)N(O)CCCCCNC(=O)CCC(=O)N(O)CCCCCNC(=O)CCC(=O)N(O)CCCCCN` [deferoxamine, (N-(5-aminopentyl)-N-hydroxy-N′-[5-(N-hydroxy-3-{[5-(N-hydroxyacetamido)pentyl]carbamoyl}propanamido)pentyl]butanediamide)], the “RFU (Relative Fluorescent Unit) value when the chelator continued to be added” value in data set [1] (chelator added to ferrous-salen complex compound-calcein AM complex, measured one hour later, λexc=485 nm, λem=520 nm) is given as “increased”. For the same compound, the EC50 in data set [1] (ferrous-salen complex compound (NBEI) 10 μM) is 0.966 µM; in data set [1] (ferrous-salen complex compound (NBEI) 50 μM) it was 1.63 µM.

The record behind these values is patent US9468621B2, “Metal-salen complex compound responsive drug and intra-corporeal behavior control system for metal-salen complex compound” (IHI Corporation, priority 2011, dated 2016).
